Laboratory results published in patent publication US20250042881A1, “CCR6 RECEPTOR MODULATORS” (Idorsia Pharmaceuticals Ltd, priority 2021, published 2025).

What follows are molecules tested against T1, human CCR6 (Homo sapiens, UniProt P51684) (assay: FLIPR assay: inhibition of CCL20-induced calcium signal in HEK-293 cells expressing human CCR6). Conditions: engineered HEK-293 cells expressing human CCR6; agonist CCL20 10 nM; 30 min preincubation; Fluo-8-AM; mean values if determined several times.
T1 construct: expressed in transfected cells; host or cells: HEK-293
T1 sequence (P51684 1-374): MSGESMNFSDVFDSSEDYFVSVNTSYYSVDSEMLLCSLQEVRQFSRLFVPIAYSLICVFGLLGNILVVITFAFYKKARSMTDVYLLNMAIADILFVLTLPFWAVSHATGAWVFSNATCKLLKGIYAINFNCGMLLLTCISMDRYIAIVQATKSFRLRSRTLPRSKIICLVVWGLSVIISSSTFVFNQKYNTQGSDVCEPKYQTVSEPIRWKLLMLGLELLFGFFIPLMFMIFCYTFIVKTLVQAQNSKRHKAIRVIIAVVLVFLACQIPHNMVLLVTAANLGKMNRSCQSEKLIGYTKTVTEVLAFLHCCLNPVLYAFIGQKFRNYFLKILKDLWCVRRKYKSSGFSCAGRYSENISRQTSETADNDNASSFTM
Assay type: cell-based
Description: FLIPR assay: The bioactivity of compounds is tested in a fluorometric imaging plate reader (FLIPR: Molecular Devices) using engineered HEK-293 cells expressing the human CCR6 (GenBank: AY242126). Frozen cells are plated on Poly-L-Lysine precoated 384-well plates 2 days prior to bioassay in DMEM medium supplemented with 10% FCS and 1% Penicillin-Streptomycin. At the day of bioassay, cell supernatant is discarded and cells are dye loaded for 30 minutes at room temperature in the dark with Fluo-8-AM (Focus Biomolecules) in Hanks Balanced Salt Solution (Gibco), buffered with 20 mM Hepes at pH 6.75 and supplemented with 0.05% BSA. This buffer, but lacking the dye, is also used for washing and compound dilution steps (assay buffer). Cells are washed free of excess dye with a wash-station (Biotek), leaving 40 microliter of assay buffer at the end. Cells were incubated for 15 minutes at room temperature in the dark, before adding compounds. Stock solutions of test compounds are made up at a concentration of 10 mM in DMSO, and serially diluted first in DMSO and then transferred in assay buffer to concentrations required for inhibition dose response curves. After a 45 minute incubation period in assay buffer at room temperature, 10 microliters of each compound dilution are transferred from a compound plate to the plate containing the recombinant cells in the FLIPR instrument according to the manufacturer's instructions. After cells and compounds were preincubated for 30 minutes at room temperature in the dark, 10 microliter agonist CCL20 (Peprotech) at a final concentration of 10 nM is added, again using the FLIPR instrument. Changes in fluorescence are monitored before and after addition of the test compounds and agonist. Emission peak values above base level after CCL20 addition are exported after base line subtraction. The calculated IC50 values may fluctuate depending on the daily assay performance. Fluctuations of this kind are known to those skilled in the art. In the case where IC50 values have been determined several times for the same compound, mean values are given.

Row | SMILES | IC50 [µM]
1 | Cc1ncc([C@@](O)(c2ccc(C(C)C)cc2)C2(C)CN(C)C2)cc1-c1nc([C@H]2CC[C@H](O)CC2)n(C2CC2)n1 [Example 40, 4-(2-Cyclopropyl-5-{5-[(R)-(1,3-dimethyl-azetidin-3-yl)-hydroxy-(4-isopropyl-phenyl)-methyl]-2-methyl-pyridin-3-yl}-2H-[1,2,4]triazol-3-yl)-trans-cyclohexanol] | 0.202
2 | CC(C)c1ccc([C@](O)(c2cncc(-c3nc(CC4(O)CCC4)n(C4CC4)n3)c2)C2(C)CN(C)C2)cc1 [Example 12, 1-(2-Cyclopropyl-5-{5-[(R)-(1,3-dimethyl-azetidin-3-yl)-hydroxy-(4-isopropyl-phenyl)-methyl]-pyridin-3-yl}-2H-[1,2,4]triazol-3-ylmethyl)-cyclobutanol] | 0.114
3 | CC(=O)N1CCC(c2nc(-c3cncc([C@@](O)(c4ccc(C(C)C)cc4)C4(C)CN(C)C4)c3)nn2C(C)C)CC1 [Example 33, 1-[4-(5-{5-[(R)-(1,3-Dimethyl-azetidin-3-yl)-hydroxy-(4-isopropyl-phenyl)-methyl]-pyridin-3-yl}-2-isopropyl-2H-[1,2,4]triazol-3-yl)-piperidin-1-yl]-ethanone] | 0.182
4 | CN1CC(C)([C@](O)(c2ccc(C3CC3)cc2)c2cncc(-c3nc(C4CCOCC4)n(C4CC4)n3)c2)C1 [Example 25, (R)-(4-Cyclopropyl-phenyl)-{5-[1-cyclopropyl-5-(tetrahydro-pyran-4-yl)-1H-[1,2,4]triazol-3-yl]-pyridin-3-yl}-(1,3-dimethyl-azetidin-3-yl)-methanol] | 0.163
5 | CC(C)c1ccc([C@](O)(c2cncc(-c3nc(C4CCN(C)C(=O)C4)n(C(C)C)n3)c2)C2(C)CN(C)C2)cc1 (stereo partly drawn) [Example 42, 4-(5-{5-[(R)-(1,3-Dimethyl-azetidin-3-yl)-hydroxy-(4-isopropyl-phenyl)-methyl]-pyridin-3-yl}-2-isopropyl-2H-[1,2,4]triazol-3-yl)-1-methyl-piperidin-2-one] | 0.2
6 | CN1CC(C)([C@](O)(c2ccc(CC(F)(F)F)cc2)c2cncc(-c3nc(C4CCOCC4)n(C4CC4)n3)c2)C1 [Example 5, (R)-{5-[1-Cyclopropyl-5-(tetrahydro-pyran-4-yl)-1H-[1,2,4]triazol-3-yl]-pyridin-3-yl}-(1,3-dimethyl-azetidin-3-yl)-[4-(2,2,2-trifluoro-ethyl)-phenyl]-methanol] | 0.182
7 | CN1CC(C)([C@](O)(c2ccc(Br)cc2)c2cncc(-c3nc(C4CCOCC4)n(C4CC4)n3)c2)C1 [Example 1, (R)-(4-Bromo-phenyl)-{5-[1-cyclopropyl-5-(tetrahydro-pyran-4-yl)-1H-[1,2,4]triazol-3-yl]-pyridin-3-yl}-(1,3-dimethyl-azetidin-3-yl)-methanol] | 1.05
8 | CC(C)c1ccc([C@](O)(c2cncc(-c3nc(C45CCC(C(=O)O)(CC4)CC5)n(C4CC4)n3)c2)C2(C)CN(C)C2)cc1 [Example 13, 4-(2-Cyclopropyl-5-{5-[(R)-(1,3-dimethyl-azetidin-3-yl)-hydroxy-(4-isopropyl-phenyl)-methyl]-pyridin-3-yl}-2H-[1,2,4]triazol-3-yl)-bicyclo[2.2.2]octane-1-carboxylic acid] | 0.149
9 | CC(C)c1ccc([C@](O)(c2cncc(-c3nc(C4CCOCC4)n(CCO)n3)c2)C2(C)CN(C)C2)cc1 [Example 17, 2-[3-{5-[(R)-(1,3-Dimethyl-azetidin-3-yl)-hydroxy-(4-isopropyl-phenyl)-methyl]-pyridin-3-yl}-5-(tetrahydro-pyran-4-yl)-[1,2,4]triazol-1-yl]-ethanol] | 0.509
10 | CN1CC(C)([C@](O)(c2ccc(OC(F)(F)F)cc2)c2cncc(-c3nc(C4CCOCC4)n(C4CC4)n3)c2)C1 [Example 4, (R)-{5-[1-Cyclopropyl-5-(tetrahydro-pyran-4-yl)-1H-[1,2,4]triazol-3-yl]-pyridin-3-yl}-(1,3-dimethyl-azetidin-3-yl)-(4-trifluoromethoxy-phenyl)-methanol] | 0.114
11 | CC(=O)N[C@H]1CC[C@H](c2nc(-c3cncc([C@@](O)(c4ccc(C(C)C)cc4)C4(C)CN(C)C4)c3)nn2C(C)C)CC1 [Example 43, N-[4-(5-{5-[(R)-(1,3-Dimethyl-azetidin-3-yl)-hydroxy-(4-isopropyl-phenyl)-methyl]-pyridin-3-yl}-2-isopropyl-2H-[1,2,4]triazol-3-yl)-trans-cyclohexyl]-acetamide] | 0.115

These reach a lower IC50. Values come first.

Row | IC50 [µM] | SMILES
12 | 0.0816 | CC(C)c1ccc([C@](O)(c2cncc(-c3nc(C4CCOCC4)n(CC(C)(F)F)n3)c2)C2(C)CN(C)C2)cc1 [Example 22, (R)-{5-[1-(2,2-Difluoro-propyl)-5-(tetrahydro-pyran-4-yl)-1H-[1,2,4]triazol-3-yl]-pyridin-3-yl}-(1,3-dimethyl-azetidin-3-yl)-(4-isopropyl-phenyl)-methanol]
13 | 0.0498 | CN1CC(C)([C@](O)(c2ccc(C3(C(F)(F)F)CC3)cc2)c2cncc(-c3nc(C4CCOCC4)n(C4CC4)n3)c2)C1 [Example 3, (R)-{5-[1-Cyclopropyl-5-(tetrahydro-pyran-4-yl)-1H-[1,2,4]triazol-3-yl]-pyridin-3-yl}-(1,3-dimethyl-azetidin-3-yl)-[4-(1-trifluoromethyl-cyclopropyl)-phenyl]-methanol]
14 | 0.104 | CC(C)c1ccc([C@](O)(c2cncc(-c3nc(C(C)(C)O)n(C4CC4)n3)c2)C2(C)CNC2)cc1 [Example 37, 2-(2-Cyclopropyl-5-{5-[(R)-hydroxy-(4-isopropyl-phenyl)-(3-methyl-azetidin-3-yl)-methyl]-pyridin-3-yl}-2H-[1,2,4]triazol-3-yl)-propan-2-ol]
15 | 0.0595 | CC(C)c1ccc([C@](O)(c2cncc(-c3nc(C(C)(C)O)n(C(C)C)n3)c2)C2(C)CN(C)C2)cc1 [Example 27, 2-(5-{5-[(R)-(1,3-Dimethyl-azetidin-3-yl)-hydroxy-(4-isopropyl-phenyl)-methyl]-pyridin-3-yl}-2-isopropyl-2H-[1,2,4]triazol-3-yl)-propan-2-ol]
16 | 0.0787 | CC(C)c1ccc([C@](O)(c2cncc(-c3nc(C45CC(CO)(C4)C5)n(C(C)C)n3)c2)C2(C)CN(C)C2)cc1 [Example 29, (R)-(1,3-Dimethyl-azetidin-3-yl)-{5-[5-(3-hydroxymethyl-bicyclo[1.1.1]pent-1-yl)-1-isopropyl-1H-[1,2,4]triazol-3-yl]-pyridin-3-yl}-(4-isopropyl-phenyl)-methanol]
17 | 0.0948 | CC(C)c1ccc([C@](O)(c2cncc(-c3nc(C4CCOCC4)n(C(C)C)n3)c2)C2(C)CN(C)C2)cc1 [Example 19, (R)-(1,3-Dimethyl-azetidin-3-yl)-(4-isopropyl-phenyl)-{5-[1-isopropyl-5-(tetrahydro-pyran-4-yl)-1H-[1,2,4]triazol-3-yl]-pyridin-3-yl}-methanol]
18 | 0.0638 | CC(C)c1ccc([C@](O)(c2cncc(-c3nc(C4CCOCC4)n(C4CC4)n3)c2)C2(C)CN(C(C)C)C2)cc1 [Example 34, (R)-{5-[1-Cyclopropyl-5-(tetrahydro-pyran-4-yl)-1H-[1,2,4]triazol-3-yl]-pyridin-3-yl}-(1-isopropyl-3-methyl-azetidin-3-yl)-(4-isopropyl-phenyl)-methanol]
19 | 0.0611 | CC(C)c1ccc([C@](O)(c2cncc(-c3nc(C45CC(CO)(C4)C5)n(C4CC4)n3)c2)C2(C)CN(C)C2)cc1 [Example 28, (R)-{5-[1-Cyclopropyl-5-(3-hydroxymethyl-bicyclo[1.1.1]pent-1-yl)-1H-[1,2,4]triazol-3-yl]-pyridin-3-yl}-(1,3-dimethyl-azetidin-3-yl)-(4-isopropyl-phenyl)-methanol]
20 | 0.0464 | CC(C)c1ccc([C@](O)(c2cncc(-c3nc(C(C)(C)O)n(C4CC4)n3)c2)C2(C)CN(C)C2)cc1 [Example 26, 2-(2-Cyclopropyl-5-{5-[(R)-(1,3-dimethyl-azetidin-3-yl)-hydroxy-(4-isopropyl-phenyl)-methyl]-pyridin-3-yl}-2H-[1,2,4]triazol-3-yl)-propan-2-ol]
21 | 0.0811 | CN1CC(C)([C@](O)(c2ccc(C(C)(C)C)cc2)c2cncc(-c3nc(C4CCOCC4)n(C4CC4)n3)c2)C1 [Example 2, (R)-(4-tert-Butyl-phenyl)-{5-[1-cyclopropyl-5-(tetrahydro-pyran-4-yl)-1H-[1,2,4]triazol-3-yl]-pyridin-3-yl}-(1,3-dimethyl-azetidin-3-yl)-methanol]
